{
  "source": "paper PMC11694556",
  "about": "(Proteins, 2024)",
  "assay_type_in_all_cases": "binding",
  "key": {"[1]": {"biological_target": "T1, cypin (cytosolic PSD-95 interactor; guanine deaminase) (Rattus norvegicus, UniProt Q9WTT6)", "T1 construct": "gene Gda", "T1 sequence (Q9WTT6 1-454)": "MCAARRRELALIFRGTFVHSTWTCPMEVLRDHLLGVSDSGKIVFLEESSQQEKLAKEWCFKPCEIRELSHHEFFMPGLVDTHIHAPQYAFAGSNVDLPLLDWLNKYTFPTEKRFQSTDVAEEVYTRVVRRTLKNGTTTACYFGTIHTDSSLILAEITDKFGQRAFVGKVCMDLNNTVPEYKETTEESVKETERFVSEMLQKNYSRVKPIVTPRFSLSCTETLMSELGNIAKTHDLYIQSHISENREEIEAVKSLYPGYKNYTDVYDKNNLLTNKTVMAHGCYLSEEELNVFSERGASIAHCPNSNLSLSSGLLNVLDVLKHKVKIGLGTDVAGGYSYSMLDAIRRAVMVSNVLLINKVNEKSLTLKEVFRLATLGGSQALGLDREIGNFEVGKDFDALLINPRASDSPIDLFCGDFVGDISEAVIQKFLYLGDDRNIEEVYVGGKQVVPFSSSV", "assay": "intrinsic tryptophan fluorescence quenching (Hill fit); also Amplex Red coupled xanthine oxidase/uricase assay"}, "[2]": {"biological_target": "T1, cypin (cytosolic PSD-95 interactor; guanine deaminase)", "assay": "intrinsic tryptophan fluorescence quenching; also NADH-coupled deaminase assay (Km […])"}, "[3]": {"biological_target": "T1, cypin (cytosolic PSD-95 interactor; guanine deaminase)", "assay": "intrinsic tryptophan fluorescence quenching; also NADH-coupled assay (Km […]) and LC-MS of deaminated product"}},
  "data": [
    {"smiles": "Nc1nc2c(ncn2COCCO)c(=O)[nH]1", "note": "[acyclovir]", "values": [
      {"measurement": "Kd", "setting": "[1]", "value": 227, "unit": "µM"}
    ]},
    {"smiles": "Nc1nc2nc[nH]c2c(=O)[nH]1", "note": "[guanine]", "values": [
      {"measurement": "Kd", "setting": "[2]", "value": 0.598, "unit": "µM"}
    ]},
    {"smiles": "CC(C)[C@H](N)C(=O)OCCOCn1cnc2c(=O)[nH]c(N)nc21", "note": "[valacyclovir]", "values": [
      {"measurement": "Kd", "setting": "[3]", "value": 74.4, "unit": "µM"}
    ]}
  ]
}
